Data reported in PubChem BioAssay (NCI).
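Values below derive from 48-hour exposures of cells grown in 96-well plates, with endpoints linearly interpolated between the two concentrations bracketing the appropriate inhibition level. GI50 is the concentration that inhibits growth by half. TGI: concentration producing complete growth inhibition.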

How the values were obtained:
Assay in all cases: NCI anticancer screen, dose series, 48 h
NCI/ADR-RES ovarian = system: NCI/ADR-RES ovarian
OVCAR-3 ovarian = system: OVCAR-3 ovarian
A498 renal = system: A498 renal
BT-549 breast = system: BT-549 breast
IGROV1 ovarian = system: IGROV1 ovarian
SN12C renal = system: SN12C renal
OVCAR-5 ovarian = system: OVCAR-5 ovarian
SNB-75 CNS = system: SNB-75 CNS
PC-3 prostate = system: PC-3 prostate
HOP-92 NSCLC = system: HOP-92 NSCLC
UACC-62 melanoma = system: UACC-62 melanoma
U251 CNS = system: U251 CNS
KM12 colon = system: KM12 colon
LOX IMVI melanoma = system: LOX IMVI melanoma
SF-268 CNS = system: SF-268 CNS
DU-145 prostate = system: DU-145 prostate
SF-295 CNS = system: SF-295 CNS
MCF7 breast = system: MCF7 breast
HCC-2998 colon = system: HCC-2998 colon
NCI-H460 lung = system: NCI-H460 lung
SK-MEL-5 melanoma = system: SK-MEL-5 melanoma
HS 578T breast = system: HS 578T breast
COLO 205 colon = system: COLO 205 colon
SK-OV-3 ovarian = system: SK-OV-3 ovarian
SK-MEL-28 melanoma = system: SK-MEL-28 melanoma
CCRF-CEM leukemia = system: CCRF-CEM leukemia
K-562 leukemia = system: K-562 leukemia
A549 NSCLC = system: A549 NSCLC
SF-539 CNS = system: SF-539 CNS
NCI-H226 lung = system: NCI-H226 lung
HOP-62 NSCLC = system: HOP-62 NSCLC
SK-MEL-2 melanoma = system: SK-MEL-2 melanoma
NCI-H522 lung = system: NCI-H522 lung
HT29 colon = system: HT29 colon
T-47D breast = system: T-47D breast
MALME-3M melanoma = system: MALME-3M melanoma
EKVX NSCLC = system: EKVX NSCLC
OVCAR-4 ovarian = system: OVCAR-4 ovarian
SNB-19 CNS = system: SNB-19 CNS
HL-60(TB) leukemia = system: HL-60(TB) leukemia
RPMI-8226 leukemia = system: RPMI-8226 leukemia
786-0 renal = system: 786-0 renal
MDA-MB-231 breast = system: MDA-MB-231 breast
SR leukemia = system: SR leukemia
UACC-257 melanoma = system: UACC-257 melanoma
HCT-116 colon = system: HCT-116 colon
HCT-15 colon = system: HCT-15 colon
OVCAR-8 ovarian = system: OVCAR-8 ovarian
ACHN renal = system: ACHN renal
CAKI-1 renal = system: CAKI-1 renal
MOLT-4 leukemia = system: MOLT-4 leukemia
UO-31 renal = system: UO-31 renal
RXF 393 renal = system: RXF 393 renal
M14 melanoma = system: M14 melanoma
SW-620 colon = system: SW-620 colon
TK-10 renal = system: TK-10 renal

CCOC(=O)Nc1cccc(-n2cnc3cc(-c4ccc(O)cc4)ccc32)c1
GI50 (NCI/ADR-RES ovarian): 84.9 nM
TGI (NCI/ADR-RES ovarian): 25400 nM
GI50 (OVCAR-3 ovarian): 56.2 nM
TGI (OVCAR-3 ovarian): 2170 nM
GI50 (A498 renal): 697 nM
TGI (A498 renal): 4530 nM
GI50 (BT-549 breast): 132 nM
TGI (BT-549 breast): 4400 nM
GI50 (IGROV1 ovarian): 561 nM
TGI (IGROV1 ovarian): > 46500 nM
GI50 (SN12C renal): 498 nM
TGI (SN12C renal): > 55000 nM
GI50 (OVCAR-5 ovarian): 600 nM
TGI (OVCAR-5 ovarian): > 75100 nM
GI50 (SNB-75 CNS): 48.6 nM
TGI (SNB-75 CNS): > 41100 nM
GI50 (PC-3 prostate): 145 nM
TGI (PC-3 prostate): > 100000 nM
GI50 (HOP-92 NSCLC): 1450 nM
TGI (HOP-92 NSCLC): 13600 nM
GI50 (UACC-62 melanoma): 367 nM
TGI (UACC-62 melanoma): > 36900 nM
GI50 (U251 CNS): 158 nM
TGI (U251 CNS): > 47100 nM
GI50 (KM12 colon): 283 nM
TGI (KM12 colon): 6020 nM
GI50 (LOX IMVI melanoma): 245 nM
TGI (LOX IMVI melanoma): > 39900 nM
GI50 (SF-268 CNS): 2190 nM
TGI (SF-268 CNS): > 71600 nM
GI50 (DU-145 prostate): 391 nM
TGI (DU-145 prostate): > 45300 nM
GI50 (SF-295 CNS): 102 nM
TGI (SF-295 CNS): > 100000 nM
GI50 (MCF7 breast): 141 nM
TGI (MCF7 breast): > 35700 nM
GI50 (HCC-2998 colon): 310 nM
TGI (HCC-2998 colon): > 66700 nM
GI50 (NCI-H460 lung): 192 nM
TGI (NCI-H460 lung): > 34200 nM
GI50 (SK-MEL-5 melanoma): 167 nM
TGI (SK-MEL-5 melanoma): 2370 nM
GI50 (HS 578T breast): 317 nM
TGI (HS 578T breast): > 30700 nM
GI50 (COLO 205 colon): 232 nM
TGI (COLO 205 colon): > 34600 nM
GI50 (SK-OV-3 ovarian): 618 nM
TGI (SK-OV-3 ovarian): > 72000 nM
GI50 (SK-MEL-28 melanoma): 1620 nM
TGI (SK-MEL-28 melanoma): > 45900 nM
GI50 (CCRF-CEM leukemia): 144 nM
TGI (CCRF-CEM leukemia): > 100000 nM
GI50 (K-562 leukemia): 42.6 nM
TGI (K-562 leukemia): > 100000 nM
GI50 (A549 NSCLC): 380 nM
TGI (A549 NSCLC): > 45600 nM
GI50 (SF-539 CNS): 182 nM
TGI (SF-539 CNS): 15000 nM
GI50 (NCI-H226 lung): 1260 nM
TGI (NCI-H226 lung): 6770 nM
GI50 (HOP-62 NSCLC): 770 nM
TGI (HOP-62 NSCLC): > 59800 nM
GI50 (SK-MEL-2 melanoma): 204 nM
TGI (SK-MEL-2 melanoma): > 43800 nM
GI50 (NCI-H522 lung): 56.1 nM
TGI (NCI-H522 lung): 333 nM
GI50 (HT29 colon): 143 nM
TGI (HT29 colon): 1100 nM
GI50 (T-47D breast): 940 nM
TGI (T-47D breast): > 29300 nM
GI50 (MALME-3M melanoma): 774 nM
TGI (MALME-3M melanoma): > 48800 nM
GI50 (EKVX NSCLC): 885 nM
TGI (EKVX NSCLC): > 47800 nM
GI50 (OVCAR-4 ovarian): 1580 nM
TGI (OVCAR-4 ovarian): > 55800 nM
GI50 (SNB-19 CNS): 313 nM
TGI (SNB-19 CNS): > 100000 nM
GI50 (HL-60(TB) leukemia): 36 nM
TGI (HL-60(TB) leukemia): 1210 nM
GI50 (RPMI-8226 leukemia): 342 nM
TGI (RPMI-8226 leukemia): 3780 nM
GI50 (786-0 renal): 719 nM
TGI (786-0 renal): > 54800 nM
GI50 (MDA-MB-231 breast): 267 nM
TGI (MDA-MB-231 breast): > 67400 nM
GI50 (SR leukemia): 32 nM
TGI (SR leukemia): > 45200 nM
GI50 (UACC-257 melanoma): 1270 nM
TGI (UACC-257 melanoma): > 42500 nM
GI50 (HCT-116 colon): 141 nM
TGI (HCT-116 colon): > 46200 nM
GI50 (HCT-15 colon): 44.7 nM
TGI (HCT-15 colon): > 37800 nM
GI50 (OVCAR-8 ovarian): 302 nM
TGI (OVCAR-8 ovarian): > 33700 nM
GI50 (ACHN renal): 260 nM
TGI (ACHN renal): > 67400 nM
GI50 (CAKI-1 renal): 343 nM
TGI (CAKI-1 renal): > 76800 nM
GI50 (MOLT-4 leukemia): 114 nM
TGI (MOLT-4 leukemia): 37200 nM
GI50 (UO-31 renal): 388 nM
TGI (UO-31 renal): > 36900 nM
GI50 (RXF 393 renal): 157 nM
TGI (RXF 393 renal): 681 nM
GI50 (M14 melanoma): 63.4 nM
TGI (M14 melanoma): > 37800 nM
GI50 (SW-620 colon): 64.7 nM
TGI (SW-620 colon): > 47400 nM
GI50 (TK-10 renal): 1470 nM
TGI (TK-10 renal): > 64800 nM

COc1ccc(-c2nc(C(Cl)Cl)nc3cc(-c4ccccc4)nn23)cc1
GI50 (BT-549 breast): 1920 nM
TGI (BT-549 breast): 5780 nM
GI50 (SNB-75 CNS): > 100000 nM
TGI (SNB-75 CNS): > 100000 nM
GI50 (HOP-92 NSCLC): 3090 nM
TGI (HOP-92 NSCLC): > 100000 nM
GI50 (UACC-62 melanoma): > 100000 nM
TGI (UACC-62 melanoma): > 100000 nM
GI50 (SK-MEL-5 melanoma): > 100000 nM
TGI (SK-MEL-5 melanoma): > 100000 nM
GI50 (K-562 leukemia): 3060 nM
TGI (K-562 leukemia): > 100000 nM
GI50 (SF-539 CNS): 72800 nM
TGI (SF-539 CNS): > 100000 nM
GI50 (HOP-62 NSCLC): 2660 nM
TGI (HOP-62 NSCLC): > 100000 nM
GI50 (SK-MEL-2 melanoma): > 100000 nM
TGI (SK-MEL-2 melanoma): > 100000 nM
GI50 (SNB-19 CNS): 2810 nM
TGI (SNB-19 CNS): > 100000 nM
GI50 (HL-60(TB) leukemia): 1600 nM
TGI (HL-60(TB) leukemia): > 100000 nM
GI50 (786-0 renal): 10700 nM
TGI (786-0 renal): 26900 nM
GI50 (SR leukemia): 1870 nM
TGI (SR leukemia): > 100000 nM
GI50 (MOLT-4 leukemia): 2750 nM
TGI (MOLT-4 leukemia): > 100000 nM
GI50 (UO-31 renal): > 100000 nM
TGI (UO-31 renal): > 100000 nM
GI50 (RXF 393 renal): 1630 nM
TGI (RXF 393 renal): 3140 nM
GI50 (SW-620 colon): 1960 nM
TGI (SW-620 colon): > 100000 nM
